Experimental data taken from US12186332B2, “Methods for overcoming WNT/beta-catenin anti-cancer resistance in leukemia stem cells” (STOWERS INSTITUTE FOR MEDICAL RESEARCH, priority 2019, dated 2025).

Tests used:
[1] = system: Akt-enhanced β-catenin activity (TOP-Luc); test: HTS TOPFlash/FOPFlash luciferase reporter dose-response; format: cell-based; settings: DNR dose-response (FIG. 13A)
[2] = system: blast cells, LSCs and HSPCs of leukemic Pten:β-cat^Act mice; format: in vivo; settings: low-dose DNR with chemotherapy
Protocol: Leukemic mice were treated with vehicle, chemotherapy, [Low]DXR (5×0.5 mg/kg), clinical DXR (1×20 mg/kg), or chemotherapy+[Low]DXR as described in FIG. S2.
Average frequency of each population (n≥6 per group) is shown.
Absolute number/femur±SD of each population (n≥6 per group) is shown.
At 10 days post-treatment, BM was analyzed by flow cytometry to determine frequency of blast cells. Average frequency±SD (n 6 per group). Note that this experiment used clinical dose (normal) or [Low]
Alternatively, a single injection on day 1 of 0.8 or 2.5 μg/g of DXR-loaded nanoparticles (NanoDXR) was given with and without chemotherapy. At 10 days post-treatment, BM was analyzed by flow cytometry to determine frequency of LSCs. Shown is average frequency±SD (n 6 per group).
Alternatively, a single injection on day 1 of 0.8 or 2.5 μg/g of DXR-loaded nanoparticles (NanoDXR) was given with and without chemotherapy. At 10 days post-treatment, BM was analyzed by flow cytometry to determine frequency of HSPCs. Shown is average frequency±SD (n 6 per group).
Whole bone marrow was isolated from uninduced HSC-SCL-Cre^+ Pten^fx/fx βcat^fx(Exon3)/+ (Pn:β-cat^Act) mice and combined with an equal portion of Cre negative bone marrow from a littermate and transplanted into irradiated (10 Grays) B6.SJL-Ptprc^a Pepc^b/BoyJ (Ptprc) recipients.
Chemotherapy for the animal model consisted of Nelarabine (Selleck) and Dexamethasone (BioVision) administered daily for 5 days consecutively. 43.4 mg/ml Nelarabine was administered intravenously via the tail vain according to the formula: Body Weight (g)×5=volume to inject (μl), which yielded 217 mg/kg. 2.5 mg/ml Dexamethasone was injected intraperitoneally according to the formula: Body Weight (g)×4=volume to inject (μl), yielding 10 mg/kg. […] [Low] NanoDXR treatment used doxorubicin nanoparticles (Tran et al. 2014) administered as a single IV injection once per week on day 1 relative to above treatments using 0.8 mg/kg. Maintenance [Low] NanoDXR consisted of once per week injections of 0.4 mg/kg. Groups combining Nelarabine with Doxorubicin used a single injection containing both drugs. All drugs were solubilized in 45% (2-Hydroxypropyl)-p-cyclodextrin (HBC) or 0.9% NaCl.
Cells were collected from bone marrow (femur and tibia), spleen, peripheral blood, and thymus. For cell surface phenotyping, a lineage cocktail (Lin) was used including CD3 (for HSPC but not LSC analysis), CD4, CD8, Mac-1, Gr, B220, IgM, and Ter119 (eBioscience, San Diego, CA). Monoclonal antibodies against CD3 (separate fluorophore for LSC analysis), Sca-1, c-Kit, CD45.1, and CD45.2 were also used where indicated. Cell sorting and analysis were performed using an inFlux (BD), MoFlo (Dako, Ft. Collins, CO) and/or CyAn ADP (Dako, Ft. Collins, CO). Data analysis was performed using FlowJo software (Ashland, OR).

pS^552-β-cat^+ LSCs = test: Pilot clinical trial of low-dose DNR in relapsed/refractory adult AML; format: in vivo, human; settings: low-dose DNR 6.75 mg/m^2 daily ×5; BM day 0 vs day 8
Text: This was registered at clinicaltrials.gov (identifier NCT02914977). All patients provided informed consent according to institutional guidelines. At least two prior induction attempts were required for fit patients with primary refractory leukemia; unfit or relapsed patients were allowed entry with one prior therapy. There was no limit on number of prior therapies. […] Exclusion criteria included presence of acute promyelocytic leukemia, CNS leukemia or total lifetime anthracycline exposure exceeding the equivalent of 900 mg/m^2 of DNR. Treatment consisted of bone marrow aspiration for correlative studies followed by one cycle of low dose DNR (6.75 mg/m^2×5 consecutive days, days 1-5) and second bone marrow aspiration on day 8. Effects on LSC population were measured by flow cytometry. Adverse events (AEs) and laboratory values were monitored for safety. This study is compliant with all relevant ethical regulations regarding research involving human participants and was approved by the Human Subjects Committee at the University of Kansas.

COc1cccc2c1C(=O)c1c(O)c3c(c(O)c1C2=O)C[C@@](O)(C(C)=O)C[C@@H]3O[C@H]1C[C@H](N)[C@H](O)[C@H](C)O1 [DNR, Daunorubicin]
inhibition of pS552-β-catenin compared with DXR [1]: similarly inhibits pS^552-β-catenin
LSC, HSPC and blast cell frequency compared with low-dose doxorubicin [2]: performs similarly to low-dose doxorubicin
patients with substantial reductions in pS552-β-cat+ LSCs (pS^552-β-cat^+ LSCs): 5/10
patients with unchanged pS552-β-cat+ LSCs (pS^552-β-cat^+ LSCs): 3/8
